Experimental data taken from EP4656642A1, “ESTROGEN RECEPTOR PROTEOLYSIS TARGETING CHIMERA COMPOUND AND USE THEREOF” (GAN & LEE PHARM CO., LTD, priority 2023, dated 2024).

Key:
Format in all cases: cell-based
[1] = target: T1, ERα (Homo sapiens, UniProt P03372); experiment: Degradation of ERα in T-47D cells (immunoblotting, 4 h); design: host or cells: T-47D
T1 sequence (P03372 1-595): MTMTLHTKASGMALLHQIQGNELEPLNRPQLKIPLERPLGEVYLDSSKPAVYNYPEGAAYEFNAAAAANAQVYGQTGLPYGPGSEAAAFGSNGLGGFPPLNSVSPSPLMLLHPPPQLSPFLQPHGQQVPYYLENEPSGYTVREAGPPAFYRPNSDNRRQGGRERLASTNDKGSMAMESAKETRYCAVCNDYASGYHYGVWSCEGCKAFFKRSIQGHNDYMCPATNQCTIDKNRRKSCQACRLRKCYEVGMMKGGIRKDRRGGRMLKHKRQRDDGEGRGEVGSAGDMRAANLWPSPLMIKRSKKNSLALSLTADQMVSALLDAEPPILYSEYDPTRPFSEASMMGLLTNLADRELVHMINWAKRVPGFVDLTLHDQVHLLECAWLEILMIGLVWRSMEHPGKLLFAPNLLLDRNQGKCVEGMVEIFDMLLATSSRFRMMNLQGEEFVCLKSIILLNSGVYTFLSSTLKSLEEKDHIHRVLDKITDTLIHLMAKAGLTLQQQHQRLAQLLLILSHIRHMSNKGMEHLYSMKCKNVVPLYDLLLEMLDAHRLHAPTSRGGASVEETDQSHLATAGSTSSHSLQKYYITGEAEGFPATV
Procedure, shortened: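 T-47D cells were treated with compound (final 0.15-1000 nM, DMSO) for 4 h at 37°C, 5% CO2. Cells were lysed in RIPA buffer with protease inhibitor, and ERα protein in the cleared lysate was measured by immunoblotting.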

[2] = system: T-47D cells; experiment: Inhibition of cell proliferation in T-47D cells (CCK-8, 6 days); conditions: 6 days of treatment
Description: Test Example 2: Inhibitory effect of the PROTAC compounds provided in the present disclosure on cell proliferation in T-47D cells (source ATCC)
The complete medium required for T-47D cells was 1640 ( ATCC, Product number: A10491-01) basal medium containing 10% fetal bovine serum. T-47D cells were inoculated in 96-well plates at a density of 3,000 cells/well, and different concentrations of the PROTAC compounds 1-55 provided in the examples of the present disclosure and a positive control sample ARV-471 (source: Innochem) were prepared to treat cells, and the cells were treated at 37°C in a cell culture incubator with 5% CO2 for 6 days. Cell viability was detected using a CCK-8 kit (Beyotime, Product number: C0040) according to the manufacturer's instructions. […] Table 2 IC50 values for inhibition of the proliferation of T-47D cells by the PROTAC compounds provided by the present disclosure and the positive control sample

[3] = target: T1, ERα; experiment: Degradation of ERα in MCF-7 cells (immunoblotting, 4 h)
Procedure, shortened: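 MCF-7 cells treated 4 h at 37°C with compounds at 0.15-1000nM final. ERα in lysates measured by immunoblot, with band grayscale normalized to an internal reference protein. Degradation rate calculated against DMSO-treated control.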

[4] = system: MCF-7 cells; experiment: Inhibition of cell proliferation of MCF-7 cells (CCK-8, 9 days); conditions: treated for 9 days, CCK-8 kit (Table 6)
Procedure, shortened: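 MCF-7 cells seeded at 800 cells/well in DMEM with 10% FBS, exposed to a range of compound concentrations for 9 days at 37°C, 5% CO2. Viability read by CCK-8; IC50 derived for proliferation inhibition.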

O=C1CCC(N2C(=O)c3cc4c(cc3C2=O)C2(CCN(C3CCN(c5ccc(C6c7ccc(O)cc7CCC6c6ccccc6)cc5)CC3)CC2)CO4)C(=O)N1 (centres unmarked) [A16]
Degradation rate (%) of ERα in T-47D cells ([1]; 10nM compound): -22%
IC50 ([2]; Table 2): 91 nM
Degradation rate (%) of ERα in MCF-7 cells ([3]; 10nM compound): -5%

O=C1CCC(N2C(=O)c3cc4c(cc3C2=O)C2(CCN(CC3CCN(c5ccc(C6c7ccc(O)cc7CCC6c6ccccc6)cc5)C3)CC2)CO4)C(=O)N1 (centres unmarked) [B1]
Degradation rate (%) of ERα in T-47D cells ([1]; 10nM compound): -15%
IC50 ([2]; Table 2): 38 nM
Degradation rate (%) of ERα in MCF-7 cells ([3]; 10nM compound): -35%

O=C1CCC(N2C(=O)c3cc4c(cc3C2=O)OC2(CC4)CN(C3CC4(CCN(c5ccc(C6c7ccc(O)cc7CCC6c6ccccc6)cc5)CC4)C3)C2)C(=O)N1 (centres unmarked) [M9]
IC50 ([2]; Table 2): 101 nM

O=C1CCC(N2C(=O)c3cc4c(cc3C2=O)C2(CCN(CC3CN(c5ccc([C@@H]6c7ccc(O)cc7CC[C@@H]6c6ccccc6)cc5)C3)CC2)CO4)C(=O)N1 (some centres unmarked) [B3]
Degradation rate (%) of ERα in T-47D cells ([1]; 10nM compound): -18%
IC50 ([2]; Table 2): 100 nM
Degradation rate (%) of ERα in MCF-7 cells ([3]; 10nM compound): -14%

O=C1CCC(N2Cc3c(ccc4c3OCC43CCN(CC4(F)CCN(CC5CCN(c6ccc([C@@H]7c8ccc(O)cc8CC[C@@H]7c7ccccc7)cc6)CC5)CC4)CC3)C2=O)C(=O)N1 (some centres unmarked) [N6]
Degradation rate (%) of ERα in T-47D cells ([1]; 1nM compound): 35%
Degradation rate (%) of ERα in T-47D cells ([1]; 10nM compound): 62%
IC50 ([2]; Table 3): 0.87 nM
Degradation rate (%) of ERα in MCF-7 cells ([3]; 1nM compound): 34%
Degradation rate (%) of ERα in MCF-7 cells ([3]; 10nM compound): 55%

O=C1CCC(N2Cc3cc4c(cc3C2=O)CCC2(CN(CC3CCC5(CC3)CCN(c3ccc([C@@H]6c7ccc(O)cc7CC[C@@H]6c6ccccc6)cc3)CC5)C2)O4)C(=O)N1 (some centres unmarked) [A3 8]
IC50 ([2]; Table 3): 15 nM

O=C1CCC(N2C(=O)c3cc4c(cc3C2=O)OC2(CC4)CN(C3CC4(CCN(c5ccc([C@@H]6c7ccc(O)cc7CC[C@@H]6c6ccccc6)cc5)CC4)C3)C2)C(=O)N1 (some centres unmarked) [M10]
Degradation rate (%) of ERα in T-47D cells ([1]; 1nM compound): 22%
Degradation rate (%) of ERα in T-47D cells ([1]; 10nM compound): 54%
IC50 ([2]; Table 2): 14 nM

O=C1CCC(N2Cc3c(ccc4c3OCC43CCN(C4CCN(C(=O)C5CCN(c6ccc(C7c8ccc(O)cc8CCC7c7ccccc7)cc6)CC5)C(C(=O)N5CCCC5)C4)CC3)C2=O)C(=O)N1 (centres unmarked) [K30]
Degradation rate (%) of ERα in T-47D cells ([1]; 1nM compound): 63%
Degradation rate (%) of ERα in T-47D cells ([1]; 10nM compound): 73%
Degradation rate (%) of ERα in MCF-7 cells ([3]; 1nM compound): 48%
Degradation rate (%) of ERα in MCF-7 cells ([3]; 10nM compound): 55%
IC50 [4]: 7.34 nM

CN(C(=O)CN1CC2(CCc3cc4c(cc3O2)CN(C2CCC(=O)NC2=O)C4=O)C1)C1CCC2(CC1)CN(c1ccc([C@@H]3c4ccc(O)cc4CC[C@@H]3c3ccccc3)cc1)C2 (some centres unmarked) [K45]
Degradation rate (%) of ERα in T-47D cells ([1]; 1nM compound): 37%
Degradation rate (%) of ERα in T-47D cells ([1]; 10nM compound): 74%
Degradation rate (%) of ERα in MCF-7 cells ([3]; 1nM compound): 21%
Degradation rate (%) of ERα in MCF-7 cells ([3]; 10nM compound): 59%
IC50 [4]: 75.2 nM

O=C1CCC(N2Cc3c(ccc4c3OC3(CC4)CCN(C4CCC5(CC4)CN(c4ccc([C@@H]6c7ccc(O)cc7CC[C@@H]6c6ccccc6)cc4)C5)CC3)C2=O)C(=O)N1 (some centres unmarked) [L22]
Degradation rate (%) of ERα in T-47D cells ([1]; 1nM compound): -7%
Degradation rate (%) of ERα in T-47D cells ([1]; 10nM compound): 9%
Degradation rate (%) of ERα in MCF-7 cells ([3]; 1nM compound): 3%
Degradation rate (%) of ERα in MCF-7 cells ([3]; 10nM compound): 18%
IC50 [4]: 111 nM

O=C1CCC(N2C(=O)c3ccc4c(c3C2=O)OCC42CCN(C3CC4(C3)CN(c3ccc([C@@H]5c6ccc(O)cc6CC[C@@H]5c5ccccc5)cc3)C4)CC2)C(=O)N1 (some centres unmarked) [L19]
Degradation rate (%) of ERα in T-47D cells ([1]; 1nM compound): 12%
Degradation rate (%) of ERα in T-47D cells ([1]; 10nM compound): 9%
Degradation rate (%) of ERα in MCF-7 cells ([3]; 1nM compound): 9%
Degradation rate (%) of ERα in MCF-7 cells ([3]; 10nM compound): 14%
IC50 [4]: 86 nM

O=C1CCC(N2Cc3c(ccc4c3OCC43CCN(C4CCN(C(=O)C5CCN(c6ccc([C@@H]7c8ccc(O)cc8CC[C@@H]7c7ccccc7)cc6)CC5)CC4)CC3)C2=O)C(=O)N1 (some centres unmarked) [A78]
Degradation rate (%) of ERα in T-47D cells ([1]; 1nM compound): 79%
Degradation rate (%) of ERα in T-47D cells ([1]; 10nM compound): 89%
Degradation rate (%) of ERα in MCF-7 cells ([3]; 1nM compound): 64%
Degradation rate (%) of ERα in MCF-7 cells ([3]; 10nM compound): 78%
IC50 [4]: 3.35 nM

O=C1CCC(N2C(=O)c3cc4c(cc3C2=O)OCC2(CCN(C3CC5(C3)CN(c3ccc(C6c7ccc(O)cc7CCC6c6ccccc6)cc3)C5)CC2)C4)C(=O)N1 (centres unmarked) [O2]
IC50 ([2]; Table 2): 180 nM

C[C@@H]1Cc2c([nH]c3ccccc23)[C@@H](c2c(F)cc(N3CCC4(CCN(C(=O)CN5CCC6(CC5)COc5c6ccc6c5CN(C5CCC(=O)NC5=O)C6=O)C4)CC3)cc2F)N1CC(F)F (some centres unmarked) [A119]
Degradation rate (%) of ERα in T-47D cells ([1]; 1nM compound): 51%
Degradation rate (%) of ERα in T-47D cells ([1]; 10nM compound): 73%
Degradation rate (%) of ERα in MCF-7 cells ([3]; 1nM compound): 12%
Degradation rate (%) of ERα in MCF-7 cells ([3]; 10nM compound): 66%
IC50 [4]: 19.4 nM

C[C@@H]1Cc2c(ccc3[nH]ncc23)C(c2ccc(N3CCC4(CC3)CC(N3CC[C@@H](N5CCC6(CC5)COc5c6ccc6c5CN(C5CCC(=O)NC5=O)C6=O)[C@@H](F)C3)C4)cn2)N1CC(F)(F)F (some centres unmarked) [H58]
Degradation rate (%) of ERα in T-47D cells ([1]; 1nM compound): 53%
Degradation rate (%) of ERα in T-47D cells ([1]; 10nM compound): 84%
Degradation rate (%) of ERα in MCF-7 cells ([3]; 1nM compound): 50%
Degradation rate (%) of ERα in MCF-7 cells ([3]; 10nM compound): 70%
IC50 [4]: 2320 nM

O=C1CCC(N2Cc3c(ccc4c3OCC43CCN(C4CC5CC4CN5C(=O)C4CCN(c5ccc([C@@H]6c7ccc(O)cc7CC[C@@H]6c6ccccc6)cc5)CC4)CC3)C2=O)C(=O)N1 (some centres unmarked) [D2]
Degradation rate (%) of ERα in T-47D cells ([1]; 1nM compound): 61%
Degradation rate (%) of ERα in T-47D cells ([1]; 10nM compound): 68%
Degradation rate (%) of ERα in MCF-7 cells ([3]; 1nM compound): 31%
Degradation rate (%) of ERα in MCF-7 cells ([3]; 10nM compound): 29%
IC50 [4]: 3620 nM

O=C1CCC(N2Cc3c(ccc4c3OCC43CCN(C4CCN(C(=O)C5CCN(c6ccc(C7c8ccc(O)cc8CCC7c7ccccc7)cc6)CC5)C(C(=O)N5CCCCC5)C4)CC3)C2=O)C(=O)N1 (centres unmarked) [K31]
Degradation rate (%) of ERα in T-47D cells ([1]; 1nM compound): 73%
Degradation rate (%) of ERα in T-47D cells ([1]; 10nM compound): 79%
Degradation rate (%) of ERα in MCF-7 cells ([3]; 1nM compound): 61%
Degradation rate (%) of ERα in MCF-7 cells ([3]; 10nM compound): 65%
IC50 [4]: 1.53 nM

O=C1CCC(N2Cc3c(ccc4c3OCC43CCN(c4ccc(C(=O)N5CCN(c6ccc([C@@H]7c8ccc(O)cc8CC[C@@H]7c7ccccc7)cc6)CC5)nc4)CC3)C2=O)C(=O)N1 (some centres unmarked) [J3]
Degradation rate (%) of ERα in T-47D cells ([1]; 1nM compound): 42%
Degradation rate (%) of ERα in T-47D cells ([1]; 10nM compound): 63%
Degradation rate (%) of ERα in MCF-7 cells ([3]; 1nM compound): 34%
Degradation rate (%) of ERα in MCF-7 cells ([3]; 10nM compound): 49%
IC50 [4]: 8.23 nM

O=C1CCC(N2Cc3cc4c(cc3C2=O)OC2(CC4)CN(C3CC4(CCC5(CCN(c6ccc([C@@H]7c8ccc(O)cc8CC[C@@H]7c7ccccc7)cc6)CC5)CC4)C3)C2)C(=O)N1 (some centres unmarked) [H24]
Degradation rate (%) of ERα in T-47D cells ([1]; 1nM compound): 16%
Degradation rate (%) of ERα in T-47D cells ([1]; 10nM compound): 21%
Degradation rate (%) of ERα in MCF-7 cells ([3]; 1nM compound): -7%
Degradation rate (%) of ERα in MCF-7 cells ([3]; 10nM compound): 11%
IC50 [4]: 1180 nM

O=C1CCC(N2Cc3c(ccc4c3OCC43CCN(C(=O)CN4CCC5(CCN(c6ccc([C@@H]7c8ccc(O)cc8CC[C@@H]7c7ccccc7)cc6)C5)C4)CC3)C2=O)C(=O)N1 (some centres unmarked) [H13]
Degradation rate (%) of ERα in T-47D cells ([1]; 1nM compound): 48%
Degradation rate (%) of ERα in T-47D cells ([1]; 10nM compound): 71%
Degradation rate (%) of ERα in MCF-7 cells ([3]; 1nM compound): 39%
Degradation rate (%) of ERα in MCF-7 cells ([3]; 10nM compound): 62%
IC50 [4]: 3.24 nM
